Where a name gives a salt, the structure may show the parent alone. Read-outs that look alike come from different tables or passages of the source.
Legend:
S.aureus (Sa) = assay: Broth microdilution MIC against S.aureus (Sa); assay type: cell-based; settings: for MIC: Staphylococcus aureus
Experimental: (§1) A certified BSL-2 laboratory was used for testing. Compounds were evaluated using the broth microdilution minimum inhibitory concentration (MIC) and minimum bactericidal concentration (MBC) assays defined by Clinical and Laboratory Standards Institute (CLSI) in the M26-A guideline against S.aureus (Sa), E.coli (Ec), K.pneumoniae (Kp), A.baumannii (Ab), E.faecalis (Ef) and P.aeruginosa (Pa).
(§2) MICs were determined using the Clinical Laboratory and Standards Institute (CLSI) Broth Microdilution Method with slight modification. Clinical and Laboratory Standards Institute (2012). “Methods for dilution antimicrobial susceptibility tests for bacteria that grow aerobically; approved standard, 9th ed. M07-A9. Clinical and Laboratory Standards Institute, Wayne, PA.” Serial two-fold dilutions of compounds are prepared in sterile clear roundbottom 96-well plates.
(§3) To prepare microdilution trays, two-fold dilutions of antimicrobial agent are prepared in growth medium: Cation-Adjusted Mueller-Hinton Broth (CAMHB), or CAMHB supplemented with sodium bicarbonate (6.25 or 25 mM final concentration prepared from a 1.0 M stock solution) or CAMHB supplemented with heat inactivated human serum (Fisher Cat. # BP2657100) 0-50% by adding 200 µL of the highest concentration to be tested (64 µg/mL, for example) in row A, mixing and transferring 100 µL from row A to 100 µL growth medium in row B, then repeating the mixing and transferring through row H of the 96-well plate, discarding the excess 100 µL remaining. This slight modification to the CLSI protocol enables evaluation of MICs for 3 compounds per plate in triplicate, albeit with only 8 compound dilutions (CLSI protocol enables 2 compounds in triplicate with 10 dilutions). Bacterial suspensions are added to a final concentration of 5 × 10^4 CFU/well by adding 5 µL of a 1:10 dilution of a 0.5 McFarland suspension (1 × 10^8 CFU/mL) for each bacterium evaluated. Bacterial suspensions were prepared using the growth method described by CLSI. Well-isolated colonies (3-5 from an agar plate) were selected using a sterile loop and used to inoculate a tube containing 4 mL of CAMHB. The cultures are incubated at 35 ± 2° C. until it achieves or exceeds the turbidity of the 0.5 McFarland standard, determined by measuring A600nm (usually two to six hours). When growth exceeds a 0.5 McFarland standard, the turbidity is adjusted with broth to be equivalent to a 0.5 McFarland standard.

E.coli (Ec) = assay: Broth microdilution MIC against E.coli (Ec); assay type: cell-based; settings: for MIC: Escherichia coli
Experimental: as §1, §2, §3

P.aeruginosa (Pa) = assay: Broth microdilution MIC against P.aeruginosa (Pa); assay type: cell-based; settings: for MIC: Pseudomonas aeruginosa
Experimental: as §1, §2, §3

A.baumannii (Ab) = assay: Broth microdilution MIC against A.baumannii (Ab); assay type: cell-based; settings: for MIC: Acinetobacter baumannii
Experimental: as §1, §2, §3

E.faecalis (Ef) = assay: Broth microdilution MIC against E.faecalis (Ef); assay type: cell-based; settings: for MIC: Enterococcus faecalis
Experimental: as §1, §2, §3

[1] = tested on: E.coli S30 extract (bacterial protein synthesis); assay: E.coli S30 extract: inhibition of bacterial protein synthesis (luciferase); assay type: biochemical; settings: 37° C. for 1 hour
Experimental: E.coli S30 extract: Inhibition of bacterial protein synthesis was determined using the E.coli S30 Extract System for Circular DNA (Promega catalog #L-2010) and Luciferase Assay Reagent (Promega catalog #E1500) with slight modifications to a published protocol. Fyfe, C., Sutcliffe, J.A. and Grossman, T.H. (2012) “Development and characterization of a Pseudomonas aeruginosa in vitro coupled transcription-translation assay system for evaluation of translation inhibitors” J. Microbiol. Methods 90(3), 256-261.
Compounds were serial diluted in 0.5 mL microcentrifuge tubes by mixing and transferring 50 µL from the highest concentration to 50 µL of water, mixing and transferring 50 µL of this 2-fold dilution to 50 µL of water. This mixing and transferring was repeated so that there are a total of 8 tubes with serial dilutions of compound at 10× the desired screening concentration that are ultimately diluted to 1× by the addition of S30 luciferase synthesis mixture. Serial dilutions of compounds were added (2 µL) to wells in a black round bottom 96-well plate. Water (2 µL) was used as a “no inhibitor” control in 4 wells/plate. No DNA control reaction mixture (20 µL; see below) was used as a control in 4 wells/plate for background luminescence. S30 luciferase synthesis mixture (18 µL; see below) was added to wells with compounds or water mixture and incubated at 37° C. for 1 hour. Reactions were stopped by transferring to 4° C. refrigerator for 5 minutes then 25 µL of luciferase activity mix was added. Luminescence was measured using a BioTek Synergy HTX plate reader. % Inhibition was determined relative to no inhibitor controls.
S30 luciferase synthesis mixture: • 445 µL S30 extract, circular • 712 µL S30 Premix without amino acids • 4.45 µL pBESTluc™ DNA (1 µg/ µL) • 78 µL complete amino acid mixture • 267 µL water
No DNA control: • 20 µL S30 extract, circular • 32 µL S30 Premix without amino acids • 7 µL complete amino acid mixture • 21 µL water

[2] = target: Rabbit Reticulocyte Lysate (eukaryotic protein synthesis); assay: Rabbit Reticulocyte Lysate: inhibition of eukaryotic protein synthesis (luciferase); assay type: biochemical; settings: 30° C. for 90 minutes, read-out: retic. IC50
Experimental: Inhibition of eukaryotic protein synthesis was determined using the Rabbit Reticulocyte Lysate System, Nuclease-Treated from Promega (catalog #L-4960) with slight modifications to the manufacturer’s protocol. Compounds were serial diluted in 0.5 mL microcentrifuge tubes by mixing and transferring 50 µL from the highest concentration to 50 µL of water, mixing and transferring 50 µL of this 2-fold dilution to 50 µL of water. This mixing and transferring was repeated so that there are a total of 8 tubes with serial dilutions of compound at 10× the desired screening concentration that are ultimately diluted to 1× by the addition of rabbit reticulocyte luciferase synthesis mixture. Serial dilutions of compounds were added (2.5 µL) to wells in a black round bottom 96-well plate. Water (2.5 µL) was used as a “no inhibitor” control in 4 wells/plate. No RNA control reaction mixture (2 µL; see below) was used as a control in 4 wells/plate for background luminescence. Rabbit reticulocyte luciferase synthesis mixture (22.5 µL; see below) was added to wells with compounds or water mixture and incubated at 30° C. for 90 minutes. Luciferase assay reagent (25 µL) was added with luminescence measured using a BioTek Synergy HTX plate reader. % Inhibition was determined relative to no inhibitor controls.
Rabbit reticulocyte luciferase synthesis mixture: • 1,000 µL rabbit reticulocyte lysate • 5.7 µL Luciferase Control RNA (1 µg/ µL) • 26 µL complete amino acid mixture • 395 µL water
No RNA Control • 70 µL rabbit reticulocyte lysate • 2 µL complete amino acid mixture • 28 µL water

[3] = CAMHB supplemented with sodium bicarbonate 6.25 mM, read-out: Sa + bicarb 6.25 (MIC)
[4] = CAMHB supplemented with sodium bicarbonate 6.25 mM, read-out: E. coli + bicarb 6.25 (MIC)
[5] = CAMHB supplemented with sodium bicarbonate 6.25 mM, read-out: Pa +bicarb 6.25 (MIC)
[6] = CAMHB supplemented with sodium bicarbonate 6.25 mM, read-out: Ab +bicarb 6.25 (MIC)
[7] = CAMHB supplemented with sodium bicarbonate 6.25 mM, read-out: Ef +bicarb 6.25 (MIC)
[8] = CAMHB supplemented with sodium bicarbonate 6.25 mM
[9] = CAMHB supplemented with sodium bicarbonate 6.25 mM, Hydrochloride Salt

Compound: CC(C)(N)C(=O)N1CCN(C(=O)Nc2ccn(-c3ccc4c(c3)CCC(N[C@H]3CC[C@H](N)C3)C4)c(=O)n2)CC1 (single isomer, unassigned) [Compound 27, Hydrochloride Salt]
- MIC (S.aureus (Sa); [3]): < 8 mg/L
- MIC (E.coli (Ec); [4]): < 8 mg/L
- MIC (P.aeruginosa (Pa); [5]): > 32 mg/L
- MIC (A.baumannii (Ab); [6]): > 32 mg/L
- MIC (E.faecalis (Ef); [7]): < 8 mg/L
- IC50 [1]: < 0.5 µM
- IC50 [2]: ≥ 1 µM

Compound: CC(C)(N)C(=O)N1CCN(C(=O)Nc2ccn(-c3ccc4c(c3)CCC(N[C@H]3CC[C@H](N)C3)C4)c(=O)n2)CC1 (single isomer, unassigned) [Compound 28, Hydrochloride Salt]
- Sa + bicarb 6.25 (MIC) (S.aureus (Sa); [8]): +++ (An MIC value (µg/mL) that is less than 8 µg/mL)
- E. coli + bicarb 6.25 (MIC) (E.coli (Ec); [8]): +++ (An MIC value (µg/mL) that is less than 8 µg/mL)
- Pa +bicarb 6.25 (MIC) (P.aeruginosa (Pa); [8]): + (An MIC value (µg/mL) that is 32 µg/mL or greater)
- Ab +bicarb 6.25 (MIC) (A.baumannii (Ab); [8]): + (An MIC value (µg/mL) that is 32 µg/mL or greater)
- Ef +bicarb 6.25 (MIC) (E.faecalis (Ef); [9]): ++ (An MIC value (µg/mL) that is 8 µg/mL or greater and less than 32 µg/mL)
- IC50 [1]: < 0.5 µM
- IC50 [2]: ≥ 1 µM

Compound: CC(C)(N)C(=O)N1CCN(C(=O)Nc2ccn(-c3ccc4c(c3)CCC(N[C@H]3CC[C@@H](N)C3)C4)c(=O)n2)CC1 (single isomer, unassigned) [Compound 33, Hydrochloride Salt]
- MIC (S.aureus (Sa); [3]): 8 to 32 mg/L
- MIC (E.coli (Ec); [4]): < 8 mg/L
- MIC (P.aeruginosa (Pa); [5]): > 32 mg/L
- MIC (A.baumannii (Ab); [6]): > 32 mg/L
- MIC (E.faecalis (Ef); [7]): > 32 mg/L
- IC50 [1]: < 0.5 µM
- IC50 [2]: ≥ 1 µM

Compound: CC(C)(N)C(=O)N1CCN(C(=O)Nc2ccn(-c3ccc4c(c3)CCC(N[C@H]3CC[C@@H](N)C3)C4)c(=O)n2)CC1 (single isomer, unassigned) [Compound 34, Hydrochloride Salt]
- Sa + bicarb 6.25 (MIC) (S.aureus (Sa); [9]): +++ (An MIC value (µg/mL) that is less than 8 µg/mL)
- E. coli + bicarb 6.25 (MIC) (E.coli (Ec); [8]): +++ (An MIC value (µg/mL) that is less than 8 µg/mL)
- Pa +bicarb 6.25 (MIC) (P.aeruginosa (Pa); [8]): + (An MIC value (µg/mL) that is 32 µg/mL or greater)
- Ab +bicarb 6.25 (MIC) (A.baumannii (Ab); [8]): + (An MIC value (µg/mL) that is 32 µg/mL or greater)
- Ef +bicarb 6.25 (MIC) (E.faecalis (Ef); [8]): + (An MIC value (µg/mL) that is 32 µg/mL or greater)
- IC50 [1]: < 0.5 µM
- IC50 [2]: ≥ 1 µM

Compound: CC(C)(N)C(=O)N1CCN(C(=O)Nc2ccn(-c3ccc4c(c3)CCC(N[C@H]3CC[C@H](N)C3)C4)c(=O)n2)CC1 (stereo in doubt) [Compound 10]
- MIC (S.aureus (Sa); CAMHB supplemented with sodium bicarbonate 25 mM, read-out: Sa + bicarb 25 (MIC)): < 8 mg/L
- MIC (E.coli (Ec); CAMHB supplemented with sodium bicarbonate 25 mM, read-out: E.coli + bicarb 25 (MIC)): < 8 mg/L
- MIC (P.aeruginosa (Pa); CAMHB supplemented with sodium bicarbonate 25 mM, read-out: Pa +bicarb 25 (MIC)): > 32 mg/L
- MIC (A.baumannii (Ab); CAMHB supplemented with sodium bicarbonate 25 mM, read-out: Ab +bicarb 25 (MIC)): > 32 mg/L
- MIC (E.faecalis (Ef); CAMHB supplemented with sodium bicarbonate 25 mM, read-out: Ef +bicarb 25 (MIC)): < 8 mg/L
- IC50 [1]: < 0.5 µM
- IC50 [2]: ≥ 1 µM

Compound: CC(C)(N)C(=O)N1CCN(C(=O)Nc2ccn(-c3ccc4c(c3)CCC(N3C[C@@H]5[C@@H](N)[C@@H]5C3)C4)c(=O)n2)CC1 (stereo partly shown) [Compound 1]
- IC50 [1]: ≥ 1 µM
- IC50 [2]: ≥ 1 µM

Compound: CC(C)(N)C(=O)N1CCN(C(=O)Nc2ccn(-c3ccc4c(c3)CCC(N3CCC(N)CC3)C4)c(=O)n2)CC1 (stereo not shown) [Compound 2]
- MIC (E.coli (Ec); [4]): < 8 mg/L
- IC50 [1]: < 0.5 µM
- IC50 [2]: ≥ 1 µM

From patent publication US20230278987A1, “Antimicrobial Compounds and Methods” (Curza Global, LLC, priority 2019, published 2023)
